Assay results taken from patent publication US8148070B2, “Genetic polymorphisms associated with coronary events and drug response, methods of detection and uses thereof” (Celera Corporation, priority 2007, dated 2012).

Experiments:
Type in all cases: in vivo, human
WOSCOPS patients = experiment: WOSCOPS nested case-control study: pravastatin vs placebo, primary CHD in subgroups defined by genotype; conditions: for Case (patients with coronary event): pravastatin arm; for risk reduction (coronary events) / OR, Effect of Pravastatin on MI and CHD: pravastatin vs placebo
Excerpt: In order to identify genetic markers associated with CHD (particularly MI, including recurrent MI) or the effect of statin treatment on CHD, samples were genotyped in two clinical trials: the Cholesterol and Recurrent Events (CARE) study (a randomized multicentral double-blinded trial on secondary prevention of MI with pravastatin (Pravachol®); Sacks et al., Am. J. Cardiol. 68: 1436-1446 [1991]), and the West of Scotland Coronary Prevention Study (WOSCOPS) study (a randomized multicentral double-blinded trial on primary prevention of CHD with pravastatin (Pravachol®); Shepherd et al., N Eng J Med 333 (20), pp. 1301-7, Nov. 16, 1995; Packard et al., N Eng J Med 343 (16), pp. 1148-55, Oct. 19, 2000).
The designs of the original WOSCOPS cohort and the nested case-control study have been described (Shepherd et al., N Eng J Med 333 (20), pp. 1301-7, Nov. 16, 1995; Packard et al., N Eng J Med 343 (16), pp. 1148-55, Oct. 19, 2000). The objective of the WOSCOPS trial was to assess pravastatin efficacy at reducing risk of primary MI or coronary death among Scottish men with hypercholesterolemia (fasting LDL cholesterol>155 mg/dl). Participants in the WOSCOPS study were 45-64 years of age and followed for an average of 4.9 years for coronary events. The nested case-control study included as cases all WOSCOPS patients who experienced a coronary event (confirmed nonfatal MI, death from CHD, or a revascularization procedure; N=580). Controls were age- and smoking-matched to unaffected patients.
In analyzing the CARE patients, statistical analysis was performed with SAS version 9. Cox proportional hazard models (Wald tests) were used in CARE to assess the association of genotype with both the risk of incident MI in the placebo arm and the effect of pravastatin on MI compared to placebo in subgroups defined by genotypes. In analyzing the WOSCOPS patients, a conditional logistic regression model was used in WOSCOPS given that the controls had been previously matched to the cases. The column entitled “On-trial MI” lists the number of patients who suffered a recurrent MI during the clinical trial period.
HR stands for Hazard Ratio, which is a concept similar to Odds Ratio (OR). The HR in event-free survival analysis is the effect of an explanatory variable on the hazard or risk of an event. For examples, it describes the likelihood of developing MI based on comparison of rate of coronary events between carriers of the certain allele and noncarriers; therefore, HR=1.5 would mean that carriers of the certain allele have 50% higher risk of coronary events during the study follow up than non-carriers. HR can also describe the effect of statin therapy on coronary events based on comparison of rate of coronary events between patient treated with statin and patient treated with placebo (or other statin) in subgroups defined by SNP genotype; therefore, HR=0.5 would mean that, for example, carriers of the certain allele, had 50% reduction of coronary events by statin therapy as compared to placebo. In Table 6, p interaction values were calculated. An interaction (or effect modification) is formed when a third variable modifies the relation between an exposure and outcome. […] Genotype and drug interaction is present when the effect of statins (incidence rate of disease in statin-treated group, as compared to placebo) differs in patients with different genotypes. The hCV3054799 risk allele predicted risk of MI in CARE and was associated with odds of CHD in WOSCOPS.

PROVE-IT patients = experiment: PROVE-IT (PROVE IT-TIMI 22) genetic study: high-dose atorvastatin vs standard-dose pravastatin, death or major cardiovascular events by KIF6 719Arg carrier status
Method: Patients were followed for 18 to 36 months, with an average follow-up of 24 months.
Of the 1,724 patients who met the criteria listed above, 1344 (78.0%) were male. […] This study was approved by institutional review boards of the Brigham and Women's Hospital and all participating centers.
KIF6 genotypes were determined using allele—specific real-time PCR as previously described. Cox proportional hazard models (Wald tests) were used to assess the effect of atorvastatin-treatment on incident CHD in the KIF6 719Arg carriers and noncarriers. Continuous variables tested were age, baseline LDL-C, and baseline HDL-C levels. Categorical variables tested were smoking (current versus non-current), hypertension, and baseline diabetes. All reported p values are two-sided.

[1] = test system: elderly men and women (ages 70-82); experiment: PROSPER trial: pravastatin vs placebo, coronary events in elderly by KIF6 719Arg carrier status; conditions: for hazard ratio (coronary events, pravastatin vs placebo) / Hazard ratio: PROSPER; for hazard ratio (coronary events, pravastatin vs placebo): ages 70-82; for event (number of patients) / no event (number of patients): pravastatin arm of PROSPER; for Hazard ratio: pravastatin vs placebo, risk of CHD
Method: In this analysis, the KIF6 Trp719Arg polymorphism was analyzed in samples from the “Prospective Study of Pravastatin in the Elderly at Risk” (PROSPER) trial (PROSPER is described further in Shepherd et al., Lancet. 2002 Nov. 23; 360(9346):1623-30). PROSPER was both a secondary and primary trial of elderly men and women (ages 70-82). […] Since an interaction has been observed between KIF6 carrier status and prior vascular events, groups with and without prior vascular events were genotyped separately.
5752 patients were genotyped within the PROSPER trial, and Cox proportional hazards models were used to investigate (1) the risk for coronary events in 719Arg carriers compared with noncarriers in a placebo arm, and (2) the effect of statin therapy according to 719Arg carrier status in a pravastatin arm.
To assess the effect of pravastatin, risk estimates were used to compare the pravastatin arm with the placebo arm in subgroups defined by genotypes.

[2] = carrier (minor homozygote + heterozygote)

SMILES: CC[C@H](C)C(=O)O[C@H]1C[C@H](O)C=C2C=C[C@H](C)[C@H](CC[C@@H](O)C[C@@H](O)CC(=O)O)[C@H]21 [Pravastatin, pravastatin]
- OR, Adjusted (CHD, pravastatin vs placebo) (WOSCOPS patients; AA (noncarriers), matched and adjusted): 0.91
- OR, Matched (CHD, pravastatin vs placebo) (WOSCOPS patients; AA (noncarriers), matched for age and smoking): 0.94
- Case (patients with coronary event) (WOSCOPS patients; AA, 213 controls): 81 number of patients
- OR, Matched (CHD, pravastatin vs placebo) (WOSCOPS patients; GG + GA (719Arg carriers), cases and controls matched for age and smoking): 0.50
- OR, Adjusted (CHD, pravastatin vs placebo) (WOSCOPS patients; GG + GA (719Arg carriers), matched and adjusted for hypertension, diabetes, BMI, LDL-C, HDL-C): 0.50
- Case (patients with coronary event) (WOSCOPS patients; GG + GA, 330 controls): 108 number of patients
- risk reduction (coronary events) (WOSCOPS patients; carriers of the KIF6 719Arg allele, significant): 50%
- risk reduction (coronary events) (WOSCOPS patients; noncarriers, insignificant): 9%
- OR, Effect of Pravastatin on MI and CHD (WOSCOPS patients; hCV3054808 genotype AA): 0.55
- OR, Effect of Pravastatin on MI and CHD (WOSCOPS patients; hCV3054808 genotype AC): 0.52
- OR, Effect of Pravastatin on MI and CHD (WOSCOPS patients; hCV3054808 genotype CC): 0.89
- OR, Effect of Pravastatin on MI and CHD (WOSCOPS patients; hCV3054813 genotype CC): 0.64
- OR, Effect of Pravastatin on MI and CHD (WOSCOPS patients; hCV3054813 genotype CT): 0.51
- OR, Effect of Pravastatin on MI and CHD (WOSCOPS patients; hCV3054813 genotype TT): 0.95
- OR, Effect of Pravastatin on MI and CHD (WOSCOPS patients; hCV29992177 genotype AA): 0.71
- OR, Effect of Pravastatin on MI and CHD (WOSCOPS patients; hCV29992177 genotype GA): 0.54
- OR, Effect of Pravastatin on MI and CHD (WOSCOPS patients; hCV29992177 genotype GG): 2.55
- OR, Effect of Pravastatin on MI and CHD (WOSCOPS patients; hCV30225864 genotype CC): 0.67
- OR, Effect of Pravastatin on MI and CHD (WOSCOPS patients; hCV30225864 genotype CT): 0.54
- OR, Effect of Pravastatin on MI and CHD (WOSCOPS patients; hCV30225864 genotype TT): 0.78
- On-trial CHD (PROVE-IT patients; ArgArg + ArgTrp, totals 509 (atorvastatin), 502 (pravastatin)): 123 Number of patients
- On-trial CHD (PROVE-IT patients; TrpTrp, totals 359 (atorvastatin), 352 (pravastatin)): 80 Number of patients
- hazard ratio (coronary events, pravastatin vs placebo) ([1]; 719Arg carriers with prior vascular disease): 0.67
- hazard ratio (coronary events, pravastatin vs placebo) ([1]; noncarriers with prior vascular disease): 0.92
- event (number of patients) [1, 2]: 103
- no event (number of patients) [1, 2]: 657
- event (number of patients) ([1]; rs20455 genotype AA): 80
- no event (number of patients) ([1]; rs20455 genotype AA): 456
- event (number of patients) ([1]; rs20455 genotype AG): 85
- no event (number of patients) ([1]; rs20455 genotype AG): 501
- event (number of patients) ([1]; rs20455 genotype GG): 18
- no event (number of patients) ([1]; rs20455 genotype GG): 156
- Hazard ratio ([1]; KIF6 719Arg carrier, Model 1 unadjusted): 0.67
- Hazard ratio ([1]; KIF6 719Arg carrier, Model 2 adjusted for age, sex and smoking status): 0.67
- Hazard ratio ([1]; KIF6 719Arg carrier, Model 3 adjusted for age, sex, smoking status, history of hypertension, LDL, HDL and history of diabetes): 0.67
- Hazard ratio ([1]; KIF6 rs20455 heterozygote, Model 1 unadjusted): 0.67
- Hazard ratio ([1]; KIF6 rs20455 heterozygote, Model 2 adjusted for age, sex and smoking status): 0.67
- Hazard ratio ([1]; KIF6 rs20455 heterozygote, Model 3 adjusted for age, sex, smoking status, history of hypertension, LDL, HDL and history of diabetes): 0.68
- Hazard ratio ([1]; KIF6 rs20455 major homozygote (noncarrier), Model 1 unadjusted): 0.93
- Hazard ratio ([1]; KIF6 rs20455 major homozygote (noncarrier), Model 2 adjusted for age, sex and smoking status): 0.92
- Hazard ratio ([1]; KIF6 rs20455 major homozygote (noncarrier), Model 3 adjusted for age, sex, smoking status, history of hypertension, LDL, HDL and history of diabetes): 0.92
- Hazard ratio ([1]; KIF6 rs20455 minor homozygote, Model 1 unadjusted): 0.65
- Hazard ratio ([1]; KIF6 rs20455 minor homozygote, Model 2 adjusted for age, sex and smoking status): 0.65
- Hazard ratio ([1]; KIF6 rs20455 minor homozygote, Model 3 adjusted for age, sex, smoking status, history of hypertension, LDL, HDL and history of diabetes): 0.63
